Laboratory results as given in patent US20250136586A1, “Substituted 7-(Pyrimidin-4-yl)Quinolin-4(1H)-One Compounds as Cyclin Dependent Kinase Inhibitors” (BeiGene, Ltd., priority 2022, published 2025).

Assays:
CDK4/Cyclin D1 = CDK4/Cyclin D1 (Homo sapiens (Human), UniProt P11802); experiment: TR-FRET kinase inhibition assay, CDK4/Cyclin D1; assay type: biochemical; settings: 1 mM ATP, 0.15 μM Rb (Ser780)-biotin substrate, read-out: CDK4D1 IC50
Outline: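 Kinase was preincubated with compound for 60 min at room temperature, then reacted with ATP and Rb (Ser780)-biotin substrate for 120 min. IC50 came from a four-parameter logistic fit.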

CDK6/Cyclin D3 = CDK6/Cyclin D3 (Homo sapiens (Human), UniProt Q00534); experiment: TR-FRET kinase inhibition assay, CDK6/Cyclin D3; assay type: biochemical; settings: 1 mM ATP, 0.15 μM Rb (Ser780)-biotin substrate, read-out: CDK6D3 IC50
Outline: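 Kinase preincubated 60 min at room temperature with 0–10 μM compound; reaction started with 1 mM ATP and 0.15 μM Rb (Ser780)-biotin, run 120 min at room temperature in HEPES pH 7.0, 50 mM MgCl2. pRb detected by TR-FRET (665/620 nm ratio); IC50 from four-parameter logistic fit.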

CDK6/Cyclin D3, sequence (Q00534 whole entry): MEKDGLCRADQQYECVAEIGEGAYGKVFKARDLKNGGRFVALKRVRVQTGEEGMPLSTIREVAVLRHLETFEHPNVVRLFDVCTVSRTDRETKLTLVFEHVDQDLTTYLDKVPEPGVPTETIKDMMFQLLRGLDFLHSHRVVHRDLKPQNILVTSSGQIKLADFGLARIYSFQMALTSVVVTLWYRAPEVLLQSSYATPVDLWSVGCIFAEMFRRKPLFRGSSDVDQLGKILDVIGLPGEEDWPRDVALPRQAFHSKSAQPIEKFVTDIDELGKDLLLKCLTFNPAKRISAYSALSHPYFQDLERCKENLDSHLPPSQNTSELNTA
CDK6/Cyclin D3, sequence (P30281 whole entry partner): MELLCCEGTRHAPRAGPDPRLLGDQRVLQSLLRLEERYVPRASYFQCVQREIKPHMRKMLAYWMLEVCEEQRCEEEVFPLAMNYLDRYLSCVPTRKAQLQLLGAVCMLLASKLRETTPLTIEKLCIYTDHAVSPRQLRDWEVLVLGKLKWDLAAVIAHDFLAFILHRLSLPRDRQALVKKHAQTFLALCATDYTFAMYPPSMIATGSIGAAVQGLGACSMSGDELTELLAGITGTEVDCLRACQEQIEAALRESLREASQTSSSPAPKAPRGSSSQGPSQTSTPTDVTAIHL
CDK4/Cyclin D1, sequence (P11802 whole entry): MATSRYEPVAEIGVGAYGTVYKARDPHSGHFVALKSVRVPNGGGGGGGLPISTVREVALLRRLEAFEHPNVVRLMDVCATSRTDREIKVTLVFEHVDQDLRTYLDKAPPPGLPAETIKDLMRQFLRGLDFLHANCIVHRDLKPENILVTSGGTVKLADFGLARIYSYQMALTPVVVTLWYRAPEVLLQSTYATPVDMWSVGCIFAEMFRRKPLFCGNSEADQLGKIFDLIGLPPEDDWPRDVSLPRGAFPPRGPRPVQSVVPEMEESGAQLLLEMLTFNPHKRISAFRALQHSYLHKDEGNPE
CDK4/Cyclin D1, sequence (P24385 whole entry partner): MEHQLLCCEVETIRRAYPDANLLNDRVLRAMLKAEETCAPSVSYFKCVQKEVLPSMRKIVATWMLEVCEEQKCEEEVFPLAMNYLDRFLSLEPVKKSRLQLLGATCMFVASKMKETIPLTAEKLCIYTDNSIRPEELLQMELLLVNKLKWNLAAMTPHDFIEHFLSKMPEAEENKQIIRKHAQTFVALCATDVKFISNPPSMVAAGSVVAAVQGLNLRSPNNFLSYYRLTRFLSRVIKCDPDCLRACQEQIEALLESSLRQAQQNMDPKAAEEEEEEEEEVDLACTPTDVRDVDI

| IC50 (CDK4/Cyclin D1) | IC50 (CDK6/Cyclin D3) | SMILES |
| --- | --- | --- |
| 6.4 nM | 467 nM | CC(C)n1c(CN2CCC[C@]3(CCN(C)C3=O)C2)cc(=O)c2ccc(-c3nc(N[C@@H]4CCOC[C@H]4O)ncc3F)cc21 [Example 52, (S)-7-((7-(5-fluoro-2-(((3S,4R)-3-hydroxytetrahydro-2H-pyran-4-yl)amino)pyrimidin-4-yl)-1-isopropyl-4-oxo-1,4-dihydroquinolin-2-yl)methyl)-2-methyl-2,7-diazaspiro[4,5]decan-1-one] |
| 34 nM | 850 nM | CC(C)n1c(CN2CCCOCC2)cc(=O)c2ccc(-c3nc(N[C@@H]4CCOC[C@H]4O)ncc3F)cc21 [Example 79, 2-((1,4-oxazepan-4-yl)methyl)-7-(5-fluoro-2-(((3S,4R)-3-hydroxytetrahydro-2H-pyran-4-yl)amino)pyrimidin-4-yl)-1-isopropylquinolin-4(1H)-one] |
| 21 nM | 273 nM | CC(C)n1c(CNc2ccc(F)cc2)cc(=O)c2ccc(-c3nc(N[C@@H]4CCOC[C@H]4O)ncc3F)cc21 [Example 96, 7-(5-fluoro-2-(((3S,4R)-3-hydroxytetrahydro-2H-pyran-4-yl)amino)pyrimidin-4-yl)-2-(((4-fluorophenyl)amino)methyl)-1-isopropylquinolin-4(1H)-one] |
| 3.9 nM | 176 nM | Cc1c(CN2CCCC(F)(F)C2)n(C(C)C)c2cc(-c3nc(N[C@@H]4CCOC[C@H]4O)ncc3F)ccc2c1=O [Example 116, 2-((3,3-difluoropiperidin-1-yl)methyl)-7-(5-fluoro-2-(((3S,4R)-3-hydroxytetrahydro-2H-pyran-4-yl)amino)pyrimidin-4-yl)-1-isopropyl-3-methylquinolin-4(1H)-one] |
| 17 nM | 561 nM | CC(C)n1c(CN2CCC(F)CC2)cc(=O)c2ccc(-c3nc(N[C@@H]4CCOC[C@H]4O)ncc3F)cc21 [Example 99, 7-(5-fluoro-2-(((3S,4R)-3-hydroxytetrahydro-2H-pyran-4-yl)amino)pyrimidin-4-yl)-2-((4-fluoropiperidin-1-yl)methyl)-1-isopropylquinolin-4(1H)-one] |
| 21 nM | 525 nM | CC(C)n1c(CNC(C)(C)C)cc(=O)c2ccc(-c3nc(N[C@@H]4CCOC[C@H]4O)ncc3F)cc21 [Example 75, 2-((tert-butylamino)methyl)-7-(5-fluoro-2-(((3S,4R)-3-hydroxytetrahydro-2H-pyran-4-yl)amino)pyrimidin-4-yl)-1-isopropylquinolin-4(1H)-one] |
| 1.9 nM | 96.9 nM | Cc1c(CN2CCOCC23CC3)n(C(C)C)c2cc(-c3nc(N[C@@H]4CCOC[C@H]4O)ncc3F)ccc2c1=O [Example 117, 2-((7-oxa-4-azaspiro[2.5]octan-4-yl)methyl)-7-(5-fluoro-2-(((3S,4R)-3-hydroxytetrahydro-2H-pyran-4-yl)amino)pyrimidin-4-yl)-1-isopropyl-3-methylquinolin-4(1H)-one] |
| 7.5 nM | 225 nM | CC(C)n1c(CN2CCOCC23CC3)cc(=O)c2ccc(-c3nc(N[C@@H]4CCOC[C@H]4O)ncc3F)cc21 [Example 73, 2-((7-oxa-4-azaspiro[2.5]octan-4-yl)methyl)-7-(5-fluoro-2-(((3S,4R)-3-hydroxytetrahydro-2H-pyran-4-yl)amino)pyrimidin-4-yl)-1-isopropylquinolin-4(1H)-one] |
| 26 nM | 702 nM | CC(C)n1c(CN[C@H]2C[C@@H](F)C2)cc(=O)c2ccc(-c3nc(N[C@@H]4CCOC[C@H]4O)ncc3F)cc21 [Example 64, 7-(5-fluoro-2-(((3S,4R)-3-hydroxytetrahydro-2H-pyran-4-yl)amino)pyrimidin-4-yl)-2-((((1s,3S)-3-fluorocyclobutyl)amino)methyl)-1-isopropylquinolin-4(1H)-one] |
| 32 nM | 928 nM | CC(C)n1c(CN2CCS(=O)(=O)CC2)cc(=O)c2ccc(-c3nc(N[C@@H]4CCOC[C@H]4O)ncc3F)cc21 [Example 83, 2-((1,1-dioxidothiomorpholino)methyl)-7-(5-fluoro-2-(((3S,4R)-3-hydroxytetrahydro-2H-pyran-4-yl)amino)pyrimidin-4-yl)-1-isopropylquinolin-4(1H)-one] |
| 54 nM | 648 nM | CC(C)n1c(CN2CCC[C@@]3(CCN(C)C3=O)C2)cc(=O)c2ccc(-c3nc(N[C@@H]4CCOC[C@H]4O)ncc3F)cc21 [Example 51, (R)-7-((7-(5-fluoro-2-(((3S,4R)-3-hydroxytetrahydro-2H-pyran-4-yl)amino)pyrimidin-4-yl)-1-isopropyl-4-oxo-1,4-dihydroquinolin-2-yl)methyl)-2-methyl-2,7-diazaspiro[4,5]decan-1-one] |
| 24 nM | 1060 nM | CC(C)n1c(CN2CCC3(CCCO3)C2)cc(=O)c2ccc(-c3nc(N[C@@H]4CCOC[C@H]4O)ncc3F)cc21 (stereo partly drawn) [Example 91, 2-((1-oxa-7-azaspiro[4.4]nonan-7-yl)methyl)-7-(5-fluoro-2-(((3S,4R)-3-hydroxytetrahydro-2H-pyran-4-yl)amino)pyrimidin-4-yl)-1-isopropylquinolin-4(1H)-one] |
| 9.1 nM | 209 nM | CC(C)n1c(CNC2CC2)cc(=O)c2ccc(-c3nc(N[C@@H]4CCOC[C@H]4O)ncc3F)cc21 [Example 48, 2-((cyclopropylamino)methyl)-7-(5-fluoro-2-(((3S,4R)-3-hydroxytetrahydro-2H-pyran-4-yl)amino)pyrimidin-4-yl)-1-isopropylquinolin-4(1H)-one] |
| 17 nM | 663 nM | Cc1c(CN[C@H]2CCOC2)n(C(C)C)c2cc(-c3nc(N[C@@H]4CCOC[C@H]4O)ncc3F)ccc2c1=O [Example 113, 7-(5-fluoro-2-(((3S,4R)-3-hydroxytetrahydro-2H-pyran-4-yl)amino)pyrimidin-4-yl)-1-isopropyl-3-methyl-2-((((S)-tetrahydrofuran-3-yl)amino)methyl)quinolin-4(1H)-one] |
| 15 nM | 345 nM | Cc1cc(=O)c2ccc(-c3nc(N[C@@H]4CCOC[C@H]4O)ncc3F)cc2n1C(C)C [Example 6, 7-(5-fluoro-2-(((3S,4R)-3-hydroxytetrahydro-2H-pyran-4-yl)amino)pyrimidin-4-yl)-1-isopropyl-2-methylquinolin-4(1H)-one] |
| 53 nM | 445 nM | CNC(=O)c1c(Cl)c(=O)c2ccc(-c3nc(N[C@@H]4CCOC[C@H]4O)ncc3F)cc2n1C(C)C [Example 23, 3-chloro-7-(5-fluoro-2-(((3S,4R)-3-hydroxytetrahydro-2H-pyran-4-yl)amino)pyrimidin-4-yl)-1-isopropyl-N-methyl-4-oxo-1,4-dihydroquinoline-2-carboxamide] |
| 27 nM | 675 nM | CC(C)n1c(CN[C@@H]2CCCOC2)cc(=O)c2ccc(-c3nc(N[C@@H]4CCOC[C@H]4O)ncc3F)cc21 [Example 59, 7-(5-fluoro-2-(((3S,4R)-3-hydroxytetrahydro-2H-pyran-4-yl)amino)pyrimidin-4-yl)-1-isopropyl-2-((((R)-tetrahydro-2H-pyran-3-yl)amino)methyl)quinolin-4(1H)-one] |

| SMILES | IC50 (CDK4/Cyclin D1) | IC50 (CDK6/Cyclin D3) |
| --- | --- | --- |
| CC(C)n1c(CN2C3CCC2COC3)cc(=O)c2ccc(-c3nc(N[C@@H]4CCOC[C@H]4O)ncc3F)cc21 [Example 81, 2-((3-oxa-8-azabicyclo[3.2.1]octan-8-yl)methyl)-7-(5-fluoro-2-(((3S,4R)-3-hydroxytetrahydro-2H-pyran-4-yl)amino)pyrimidin-4-yl)-1-isopropylquinolin-4(1H)-one] | 23 nM | 483 nM |
